Test results: patent US20250041300A1, “PHARMACEUTICAL COMBINATION COMPRISING ABEMACICLIB AND A PI3K AND/OR A MTOR INHIBITOR FOR THE TREATMENT OF MANTLE CELL LYMPHOMA” (Board of Regents, The University of Texas System, priority 2021, published 2025)

What was measured:
PI3Kδ = PI3Kδ (Homo sapiens, UniProt O00329); details: cited from earlier work
mTOR = mTOR (Homo sapiens, UniProt P42345); details: cited from earlier work
PI3Kβ = PI3Kβ (Homo sapiens, UniProt P42338); details: cited from earlier work
PI3Kγ = PI3Kγ (Homo sapiens, UniProt P48736); details: cited from earlier work
PI3Kα = PI3Kα (Homo sapiens, UniProt P42336); details: cited from earlier work
class I PI3Ks = details: cited from earlier work
mTORC1/2 = mTORC1/2 (Homo sapiens, UniProt P42345); details: in words; cited from earlier work
Mino-ven-R cells = assay: CellTiter-Glo Luminescent Cell viability Assay, abemaciclib single agent; format: cell-based; details: 72h, acquired venetoclax resistance
Method: (§1) IC50 values were calculated using GraphPad Prism 8 for each cell line. Student's t-test was performed to compare the difference between vehicle and treated groups. Two-way analysis of variance (ANOVA) was conducted to analyze the tumor growth in vivo experiments. P values less than 0.05 were considered statistically significant.

[1] = tested on: MCL cell lines (Mino, Rec-1, Maver-1, Z138, JeKo-1); assay: as above; format: cell-based; details: 72h; range over venetoclax sensitive (Mino, Rec-1, Maver-1, Z138) and primary resistant (JeKo-1) MCL cells
Method: as §1

Rec-ven-R cells = assay: as above; format: cell-based; details: 72h, acquired venetoclax resistance
Method: as §1

Sequence of PI3Kβ (P42338 whole entry): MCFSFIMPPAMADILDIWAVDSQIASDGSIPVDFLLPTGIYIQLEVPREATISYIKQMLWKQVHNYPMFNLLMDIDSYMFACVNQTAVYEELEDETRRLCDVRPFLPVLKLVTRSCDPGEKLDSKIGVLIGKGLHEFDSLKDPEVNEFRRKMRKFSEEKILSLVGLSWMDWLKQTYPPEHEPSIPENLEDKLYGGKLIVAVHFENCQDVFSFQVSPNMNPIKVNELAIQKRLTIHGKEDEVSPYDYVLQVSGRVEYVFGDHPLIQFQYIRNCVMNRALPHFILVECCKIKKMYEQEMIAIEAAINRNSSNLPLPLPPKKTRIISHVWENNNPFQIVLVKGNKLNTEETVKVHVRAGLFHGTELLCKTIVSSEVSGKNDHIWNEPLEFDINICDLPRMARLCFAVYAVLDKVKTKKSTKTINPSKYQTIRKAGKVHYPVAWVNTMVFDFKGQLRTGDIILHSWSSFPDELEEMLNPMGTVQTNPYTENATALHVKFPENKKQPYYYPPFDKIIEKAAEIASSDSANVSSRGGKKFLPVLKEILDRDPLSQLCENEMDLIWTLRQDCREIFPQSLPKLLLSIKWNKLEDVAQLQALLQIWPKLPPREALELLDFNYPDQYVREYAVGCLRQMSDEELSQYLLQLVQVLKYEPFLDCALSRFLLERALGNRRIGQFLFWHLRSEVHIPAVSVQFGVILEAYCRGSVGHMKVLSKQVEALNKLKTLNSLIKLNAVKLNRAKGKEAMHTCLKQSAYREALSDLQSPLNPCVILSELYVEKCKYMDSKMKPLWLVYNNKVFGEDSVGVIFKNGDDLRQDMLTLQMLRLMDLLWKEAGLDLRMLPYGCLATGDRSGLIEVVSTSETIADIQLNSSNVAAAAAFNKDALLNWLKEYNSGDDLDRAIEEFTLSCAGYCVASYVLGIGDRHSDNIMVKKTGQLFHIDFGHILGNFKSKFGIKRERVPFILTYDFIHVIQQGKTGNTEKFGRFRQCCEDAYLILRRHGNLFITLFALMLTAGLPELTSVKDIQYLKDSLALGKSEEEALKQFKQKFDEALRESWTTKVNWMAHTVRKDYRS
Sequence of PI3Kβ (P27986 whole entry partner): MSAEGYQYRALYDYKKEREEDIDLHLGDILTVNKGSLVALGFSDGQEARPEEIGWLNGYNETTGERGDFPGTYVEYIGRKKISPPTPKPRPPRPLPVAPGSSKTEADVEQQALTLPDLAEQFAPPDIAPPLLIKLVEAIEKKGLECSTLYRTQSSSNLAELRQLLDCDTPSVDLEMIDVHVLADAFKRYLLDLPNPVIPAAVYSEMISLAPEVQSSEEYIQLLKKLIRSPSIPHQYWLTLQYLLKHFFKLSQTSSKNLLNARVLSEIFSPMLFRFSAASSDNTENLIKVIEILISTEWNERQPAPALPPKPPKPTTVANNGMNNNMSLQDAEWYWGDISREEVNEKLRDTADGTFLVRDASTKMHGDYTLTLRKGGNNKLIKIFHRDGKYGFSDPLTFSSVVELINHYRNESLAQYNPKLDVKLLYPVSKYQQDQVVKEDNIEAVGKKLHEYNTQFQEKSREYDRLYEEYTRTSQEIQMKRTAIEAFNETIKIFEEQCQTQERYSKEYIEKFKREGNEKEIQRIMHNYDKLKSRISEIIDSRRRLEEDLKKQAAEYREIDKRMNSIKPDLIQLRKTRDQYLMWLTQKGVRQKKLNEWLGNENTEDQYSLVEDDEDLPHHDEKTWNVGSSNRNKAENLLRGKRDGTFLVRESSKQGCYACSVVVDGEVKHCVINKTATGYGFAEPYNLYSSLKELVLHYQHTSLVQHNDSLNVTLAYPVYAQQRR
Sequence of PI3Kγ (P48736 whole entry): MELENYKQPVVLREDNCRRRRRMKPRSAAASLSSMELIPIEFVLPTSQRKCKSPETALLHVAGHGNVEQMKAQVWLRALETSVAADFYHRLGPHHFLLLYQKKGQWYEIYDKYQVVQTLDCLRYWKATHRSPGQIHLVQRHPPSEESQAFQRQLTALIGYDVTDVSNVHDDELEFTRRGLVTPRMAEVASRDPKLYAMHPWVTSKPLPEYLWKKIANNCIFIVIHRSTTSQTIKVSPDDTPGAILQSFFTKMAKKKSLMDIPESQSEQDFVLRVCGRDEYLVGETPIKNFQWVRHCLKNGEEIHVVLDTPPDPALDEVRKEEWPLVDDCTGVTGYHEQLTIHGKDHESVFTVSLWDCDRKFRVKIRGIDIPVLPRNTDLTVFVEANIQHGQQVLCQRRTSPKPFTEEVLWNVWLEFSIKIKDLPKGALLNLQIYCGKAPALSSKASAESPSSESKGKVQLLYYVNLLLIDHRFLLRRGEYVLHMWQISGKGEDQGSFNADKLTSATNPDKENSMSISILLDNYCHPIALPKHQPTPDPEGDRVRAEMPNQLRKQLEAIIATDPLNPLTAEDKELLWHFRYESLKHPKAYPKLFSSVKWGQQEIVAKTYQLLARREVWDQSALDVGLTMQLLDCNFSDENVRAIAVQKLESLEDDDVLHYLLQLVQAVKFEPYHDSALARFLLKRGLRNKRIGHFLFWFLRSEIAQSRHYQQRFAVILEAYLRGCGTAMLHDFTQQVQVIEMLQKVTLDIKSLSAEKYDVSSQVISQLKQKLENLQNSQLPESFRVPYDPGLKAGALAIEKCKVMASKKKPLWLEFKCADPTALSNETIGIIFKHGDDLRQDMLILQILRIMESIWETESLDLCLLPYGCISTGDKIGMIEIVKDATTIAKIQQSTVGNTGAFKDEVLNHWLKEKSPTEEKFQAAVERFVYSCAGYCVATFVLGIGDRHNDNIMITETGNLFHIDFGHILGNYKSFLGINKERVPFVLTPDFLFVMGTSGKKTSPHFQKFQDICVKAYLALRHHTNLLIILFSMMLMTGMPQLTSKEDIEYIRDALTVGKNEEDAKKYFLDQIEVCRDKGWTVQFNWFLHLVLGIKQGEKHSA
Sequence of PI3Kδ (O00329 whole entry): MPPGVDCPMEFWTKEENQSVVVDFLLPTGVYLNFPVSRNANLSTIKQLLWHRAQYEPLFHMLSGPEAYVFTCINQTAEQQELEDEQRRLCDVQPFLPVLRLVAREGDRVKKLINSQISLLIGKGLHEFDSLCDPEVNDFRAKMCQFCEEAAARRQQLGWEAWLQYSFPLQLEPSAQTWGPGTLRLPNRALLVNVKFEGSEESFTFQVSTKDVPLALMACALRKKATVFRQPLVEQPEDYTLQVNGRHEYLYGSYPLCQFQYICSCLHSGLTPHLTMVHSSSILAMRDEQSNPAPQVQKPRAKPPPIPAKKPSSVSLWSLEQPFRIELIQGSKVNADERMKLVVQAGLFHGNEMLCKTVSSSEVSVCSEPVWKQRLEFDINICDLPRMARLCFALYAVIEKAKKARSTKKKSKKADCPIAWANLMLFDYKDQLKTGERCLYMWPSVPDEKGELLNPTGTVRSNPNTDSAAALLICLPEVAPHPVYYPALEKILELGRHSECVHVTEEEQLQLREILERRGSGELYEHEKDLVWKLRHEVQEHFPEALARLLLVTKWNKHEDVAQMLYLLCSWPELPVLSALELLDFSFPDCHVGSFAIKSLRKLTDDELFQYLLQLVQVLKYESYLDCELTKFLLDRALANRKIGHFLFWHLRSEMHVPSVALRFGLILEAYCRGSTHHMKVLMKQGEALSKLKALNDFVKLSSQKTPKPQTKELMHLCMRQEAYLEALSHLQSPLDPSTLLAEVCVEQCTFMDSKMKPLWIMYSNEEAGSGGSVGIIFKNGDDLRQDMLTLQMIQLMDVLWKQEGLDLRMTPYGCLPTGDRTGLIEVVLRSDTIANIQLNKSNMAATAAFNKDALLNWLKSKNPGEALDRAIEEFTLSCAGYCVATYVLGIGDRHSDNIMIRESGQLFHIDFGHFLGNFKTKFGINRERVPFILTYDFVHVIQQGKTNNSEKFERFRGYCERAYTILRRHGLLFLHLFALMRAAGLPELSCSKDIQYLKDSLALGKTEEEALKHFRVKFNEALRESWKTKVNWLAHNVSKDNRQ
Sequence of PI3Kδ (P27986 whole entry partner): as the sequence (P27986 whole entry partner) above
Sequence of PI3Kα (P42336 whole entry): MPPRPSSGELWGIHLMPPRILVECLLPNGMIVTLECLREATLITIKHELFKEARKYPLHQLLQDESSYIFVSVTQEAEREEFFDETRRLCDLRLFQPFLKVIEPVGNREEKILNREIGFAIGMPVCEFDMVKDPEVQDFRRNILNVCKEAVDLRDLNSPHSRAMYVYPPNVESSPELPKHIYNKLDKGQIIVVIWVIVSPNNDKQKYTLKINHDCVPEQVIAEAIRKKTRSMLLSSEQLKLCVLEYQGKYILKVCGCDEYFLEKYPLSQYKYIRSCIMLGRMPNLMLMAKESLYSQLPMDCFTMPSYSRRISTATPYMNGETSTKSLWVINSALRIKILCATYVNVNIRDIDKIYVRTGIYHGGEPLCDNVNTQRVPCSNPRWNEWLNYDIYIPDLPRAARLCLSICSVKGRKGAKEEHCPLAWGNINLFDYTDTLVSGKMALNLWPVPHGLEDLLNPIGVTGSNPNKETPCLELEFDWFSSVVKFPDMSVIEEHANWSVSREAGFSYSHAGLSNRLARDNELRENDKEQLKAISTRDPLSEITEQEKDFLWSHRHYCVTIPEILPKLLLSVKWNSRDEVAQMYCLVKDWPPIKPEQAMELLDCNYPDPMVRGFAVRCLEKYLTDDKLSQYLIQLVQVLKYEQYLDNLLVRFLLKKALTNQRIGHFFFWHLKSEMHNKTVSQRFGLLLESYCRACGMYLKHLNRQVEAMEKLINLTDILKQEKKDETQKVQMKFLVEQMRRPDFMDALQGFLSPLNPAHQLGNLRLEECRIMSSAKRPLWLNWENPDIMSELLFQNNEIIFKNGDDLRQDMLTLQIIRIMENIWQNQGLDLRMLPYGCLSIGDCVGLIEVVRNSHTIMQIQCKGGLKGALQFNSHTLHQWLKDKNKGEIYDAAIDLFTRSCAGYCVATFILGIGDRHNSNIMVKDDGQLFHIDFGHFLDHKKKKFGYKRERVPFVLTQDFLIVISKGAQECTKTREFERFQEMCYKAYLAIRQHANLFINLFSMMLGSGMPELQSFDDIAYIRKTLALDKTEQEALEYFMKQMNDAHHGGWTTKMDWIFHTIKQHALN
Sequence of PI3Kα (P27986 whole entry partner): as the sequence (P27986 whole entry partner) above

## C[C@@H](Nc1cc(F)cc(F)c1)c1cc(C(=O)N(C)C)cc2c(=O)cc(N3CCOCC3)oc12 [AZD8186, 8-[(1R)-1-(3,5-difluoroanilino)ethyl]-N,N-dimethyl-2-morpholin-4-yl-4-oxochromene-6-carboxamide]
PI3Kδ
  IC50 against PI3Kδ (order of magnitude in words): nanomolar

## C[C@H](Nc1ncnc2nc[nH]c12)c1nc2ccc(F)cc2c(=O)n1-c1ccccc1 [Acalisib, 6-fluoro-3-phenyl-2-[(1S)-1-(7H-purin-6-ylamino)ethyl]quinazolin-4-one]
PI3Kδ
  IC50 against PI3Kδ (order of magnitude in words): nanomolar

## Cc1c(CN2CCN(C(=O)[C@H](C)O)CC2)sc2c(N3CCOCC3)nc(-c3cnc(N)nc3)nc12 [Apitolisib, (2S)-1-[4-[[2-(2-aminopyrimidin-5-yl)-7-methyl-4-morpholin-4-ylthieno[3,2-d]pyrimidin-6-yl]methyl]piperazin-1-yl]-2-hydroxypropan-1-one]
mTOR
  IC50 against mTOR (order of magnitude in words): nanomolar

## COc1ccc(-c2ccc3ncc4c(c3c2)n(-c2ccc(N3CCNCC3)c(C(F)(F)F)c2)c(=O)n4C)cn1 [BGT-226, 8-(6-methoxypyridin-3-yl)-3-methyl-1-[4-piperazin-1-yl-3-(trifluoromethyl)phenyl]imidazo[4,5-c]quinolin-2-one]
mTOR
  IC50 against mTOR (order of magnitude in words): nanomolar
PI3Kβ
  IC50 against PI3Kβ (order of magnitude in words): nanomolar
PI3Kγ
  IC50 against PI3Kγ (order of magnitude in words): nanomolar
PI3Kα
  IC50 against PI3Kα (order of magnitude in words): nanomolar
PI3Kδ
  IC50 against PI3Kδ (order of magnitude in words): nanomolar

## CS(=O)(=O)N1CCc2c(-c3cnc(N)nc3)nc(N3CCOCC3)nc21 [CH5132799, 5-(7-(methylsulfonyl)-2-morpholino-6,7-dihydro-5H-pyrrolo[2,3-d]pyrimidin-4-yl)pyrimidin-2-amine]
Class I PI3Ks
  IC50 against class I PI3Ks (order of magnitude in words): nanomolar

## COc1cccc2cc(-c3nc([C@H]4CC[C@H](C(=O)O)CC4)n4ncnc(N)c34)[nH]c12 [OSI-027, 4-[4-amino-5-(7-methoxy-1H-indol-2-yl)imidazo[5,1-f][1,2,4]triazin-7-yl]cyclohexane-1-carboxylic acid]
mTOR
  IC50 against mTOR (order of magnitude in words): nanomolar

## COc1ncc(-c2ccc3nccc(-c4ccnnc4)c3c2)cc1NS(=O)(=O)c1ccc(F)cc1F [Omipalisib, 2,4-difluoro-N-[2-methoxy-5-(4-pyridazin-4-ylquinolin-6-yl)pyridin-3-yl]benzenesulfonamide]
PI3Kγ
  IC50 against PI3Kγ (order of magnitude in words): nanomolar

## O=C(Nc1ccncc1)Nc1ccc(-c2nc(N3CCOCC3)nc(N3C4CCC3COC4)n2)cc1 [PKI-179, 1-[4-[4-morpholin-4-yl-6-(3-oxa-8-azabicyclo[3.2.1]octan-8-yl)-1,3,5-triazin-2-yl]phenyl]-3-pyridin-4-ylurea]
mTOR
  IC50 against mTOR (order of magnitude in words): nanomolar
PI3Kβ
  IC50 against PI3Kβ (order of magnitude in words): nanomolar
PI3Kγ
  IC50 against PI3Kγ (order of magnitude in words): nanomolar
PI3Kα
  IC50 against PI3Kα (order of magnitude in words): nanomolar
PI3Kδ
  IC50 against PI3Kδ (order of magnitude in words): nanomolar

## CCOc1c([C@H](C)n2nc(C)c3c(N)ncnc32)cc(Cl)c(F)c1[C@@H]1CNC(=O)C1 [Parsaclisib, (4R)-4-[3-[(1S)-1-(4-amino-3-methylpyrazolo[3,4-d]pyrimidin-1-yl)ethyl]-5-chloro-2-ethoxy-6-fluorophenyl]pyrrolidin-2-one]
PI3Kδ
  IC50 against PI3Kδ (order of magnitude in words): nanomolar

## COc1ccc(Cl)c(Nc2nc3ccccc3nc2NS(=O)(=O)c2cccc(NC(=O)C(C)(C)N)c2)c1 [Pilaralisib, 2-amino-N-[3-[[3-(2-chloro-5-methoxyanilino)quinoxalin-2-yl]sulfamoyl]phenyl]-2-methylpropanamide]
PI3Kβ
  IC50 against PI3Kβ (order of magnitude in words): nanomolar
PI3Kγ
  IC50 against PI3Kγ (order of magnitude in words): nanomolar
PI3Kα
  IC50 against PI3Kα (order of magnitude in words): nanomolar
PI3Kδ
  IC50 against PI3Kδ (order of magnitude in words): nanomolar

## CO[C@@H](C)Cn1c(=O)n(C)c2cnc3ccc(-c4cncc(C(C)(C)O)c4)cc3c21 [Samotolisib, 8-[5-(2-hydroxypropan-2-yl)pyridin-3-yl]-1-[(2S)-2-methoxypropyl]-3-methylimidazo[4,5-c]quinolin-2-one]
mTORC1/2
  concentrations at which mTORC1/2 is inhibited: low nanomolar concentrations

## Nc1nc2cc(-c3ccc4ncc(C(=O)N5CCOCC5)n4c3)ccc2o1 [Serabelisib, [6-(2-amino-1,3-benzoxazol-5-yl)imidazo[1,2-a]pyridin-3-yl]-morpholin-4-ylmethanone]
PI3Kα
  IC50 against PI3Kα (order of magnitude in words): nanomolar

## C=CCN(/C=C1/C(=O)O[C@H](COC)[C@@]2(C)C1=C(O)C(=O)C1=C2[C@H](OC(C)=O)C[C@]2(C)C(=O)CC[C@@H]12)CC=C [Sonolisib, [(3αR,6E,9S,9αR,10R,11αS)-6-[bis(prop-2-enyl)aminomethylidene]-5-hydroxy-9-(methoxymethyl)-9α,11α-dimethyl-1,4,7-trioxo-2,3,3a,9,10,11-hexahydroindeno[4,5-h]isochromen-10-yl]acetate]
PI3Kγ
  IC50 against PI3Kγ (order of magnitude in words): nanomolar
PI3Kα
  IC50 against PI3Kα (order of magnitude in words): nanomolar
PI3Kδ
  IC50 against PI3Kδ (order of magnitude in words): nanomolar

## Cc1nc(-c2cn3c(n2)-c2ccc(-c4cnn(C(C)(C)C(N)=O)c4)cc2OCC3)n(C(C)C)n1 [Taselisib, 2-methyl-2-[4-[2-(5-methyl-2-propan-2-yl-1,2,4-triazol-3-yl)-5,6-dihydroimidazo[1,2-d][1,4]benzoxazepin-9-yl]pyrazol-1-yl]propanamide]
PI3Kβ
  IC50 against PI3Kβ (order of magnitude in words): nanomolar
PI3Kγ
  IC50 against PI3Kγ (order of magnitude in words): nanomolar

## CO[C@H]1C[C@@H]2CC[C@@H](C)[C@@](O)(O2)C(=O)C(=O)N2CCCC[C@H]2C(=O)O[C@H]([C@H](C)C[C@@H]2CC[C@@H](OC(=O)C(C)(CO)CO)[C@H](OC)C2)CC(=O)[C@H](C)/C=C(\C)[C@@H](O)[C@@H](OC)C(=O)[C@H](C)C[C@H](C)/C=C/C=C/C=C/1C [Temsirolimus, [(1R,2R,4S)-4-[(2R)-2-[(1R,9S, 12S, 15R, 16E,18R, 19R,21R,23S,24E,26E,28E,30S,32S,35R)-1,18-dihydroxy-19,30-dimethoxy-15,17,21,23,29,35-hexamethyl-2,3,10, 14,20-pentaoxo-11,36-dioxa-4-azatricyclo[30.3.1.04,9]hexatriaconta-16,24,26,28-tetraen-12-yl]propyl]-2-methoxycyclohexyl]3-hydroxy-2-(hydroxymethyl)-2-methylpropanoate]
mTOR
  IC50 against mTOR (order of magnitude in words): micromolar

## CC[C@H](Nc1ncnc2[nH]cnc12)c1oc2ccccc2c(=O)c1-c1cccc(F)c1 [Tenalisib, 3-(3-fluorophenyl)-2-[(1S)-1-(7H-purin-6-ylamino)propyl]chromen-4-one]
PI3Kγ
  IC50 against PI3Kγ (order of magnitude in words): nanomolar
PI3Kδ
  IC50 against PI3Kδ (order of magnitude in words): nanomolar

## CCn1c(=O)c(-c2ccn[nH]2)cc2c(C)nc(N)nc21 [Voxtalisib, 2-amino-8-ethyl-4-methyl-6-(1H-pyrazol-5-yl)pyrido[2,3-d]pyrimidin-7-one]
mTOR
  IC50 against mTOR (order of magnitude in words): nanomolar
PI3Kβ
  IC50 against PI3Kβ (order of magnitude in words): nanomolar
PI3Kγ
  IC50 against PI3Kγ (order of magnitude in words): nanomolar
PI3Kα
  IC50 against PI3Kα (order of magnitude in words): nanomolar
PI3Kδ
  IC50 against PI3Kδ (order of magnitude in words): nanomolar

## CN1CCC(c2ccccc2CC(C)(C)Nc2nc(N3CCOCC3)nc(-n3c(C(F)F)nc4ccccc43)n2)CC1 [Zandelisib, 4-[2-(difluoromethyl)benzimidazol-1-yl]-N-[2-methyl-1-[2-(1-methylpiperidin-4-yl)phenyl]propan-2-yl]-6-morpholin-4-yl-1,3,5-triazin-2-amine]
PI3Kδ
  IC50 against PI3Kδ (order of magnitude in words): nanomolar

## CCN1CCN(Cc2ccc(Nc3ncc(F)c(-c4cc(F)c5nc(C)n(C(C)C)c5c4)n3)nc2)CC1 [abemaciclib]
Mino-ven-R cells
  IC50: 6 µM
[1]
  IC50: 0.07 to 0.952 µM
Rec-ven-R cells
  IC50: 4.4 µM
